Data on nine molecules can be found in US8618289B2 (Ambit Biosciences Corporation, priority 2008, dated 2013).

Assay [1] deals with RAF kinases (Homo sapiens, UniProt P15056, V600E). Put plainly: biochemical.
Assay [2] relates to 290 distinct kinases tested excluding mutant variants (321 in the larger panel). The conditions noted are these: no asterisk: panel of 290 distinct kinases.
Assay [3] deals with RAF kinases (Homo sapiens, UniProt P15056). The conditions noted are these: read-out: BRAF WT Kd; BRAF WT.
For assay [4], the target named is RAF kinases (Homo sapiens, UniProt P04049). The conditions noted are these: read-out: RAF1 Kd; RAF1.
The subject of assay [5] is MEK1 phosphorylation in the A375 human melanoma cell line. In words: cells. The conditions noted are these: A-375, read-out: pMEK IC50.
The next assay concerns Erk1/2. The conditions noted are these: carrageenan-induced pleurisy rat model; Sawatzky et al.; cited from earlier work.
The test system of assay [6] is tumor growth or metastases. The conditions noted are these: preclinical studies; Sharma et al.; cited from earlier work.

Chain of RAF kinases (Homo sapiens, UniProt P15056) (P15056 whole entry): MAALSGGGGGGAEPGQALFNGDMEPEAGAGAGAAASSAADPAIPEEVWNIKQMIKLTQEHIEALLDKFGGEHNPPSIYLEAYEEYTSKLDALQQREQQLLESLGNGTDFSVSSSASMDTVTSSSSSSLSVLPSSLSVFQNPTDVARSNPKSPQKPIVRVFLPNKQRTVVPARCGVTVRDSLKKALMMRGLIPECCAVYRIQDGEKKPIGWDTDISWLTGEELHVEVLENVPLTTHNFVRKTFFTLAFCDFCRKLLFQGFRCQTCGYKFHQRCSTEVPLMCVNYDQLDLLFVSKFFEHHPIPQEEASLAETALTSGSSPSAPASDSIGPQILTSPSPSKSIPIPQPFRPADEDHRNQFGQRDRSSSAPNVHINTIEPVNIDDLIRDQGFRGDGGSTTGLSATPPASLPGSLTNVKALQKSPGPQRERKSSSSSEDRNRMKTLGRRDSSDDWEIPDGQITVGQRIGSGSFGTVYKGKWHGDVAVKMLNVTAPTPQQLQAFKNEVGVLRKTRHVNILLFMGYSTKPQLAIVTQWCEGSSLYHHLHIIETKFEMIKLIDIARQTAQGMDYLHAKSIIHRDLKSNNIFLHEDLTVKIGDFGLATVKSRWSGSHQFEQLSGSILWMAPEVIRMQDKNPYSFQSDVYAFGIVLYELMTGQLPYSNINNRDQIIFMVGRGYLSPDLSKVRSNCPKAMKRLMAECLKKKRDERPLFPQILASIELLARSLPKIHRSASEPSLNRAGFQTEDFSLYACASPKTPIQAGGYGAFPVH
Chain of RAF kinases (Homo sapiens, UniProt P15056, V600E) (P15056 whole entry V600E): as the sequence (P15056 whole entry) above, with V600E counted along it
Chain of RAF kinases (Homo sapiens, UniProt P04049) (P04049 whole entry): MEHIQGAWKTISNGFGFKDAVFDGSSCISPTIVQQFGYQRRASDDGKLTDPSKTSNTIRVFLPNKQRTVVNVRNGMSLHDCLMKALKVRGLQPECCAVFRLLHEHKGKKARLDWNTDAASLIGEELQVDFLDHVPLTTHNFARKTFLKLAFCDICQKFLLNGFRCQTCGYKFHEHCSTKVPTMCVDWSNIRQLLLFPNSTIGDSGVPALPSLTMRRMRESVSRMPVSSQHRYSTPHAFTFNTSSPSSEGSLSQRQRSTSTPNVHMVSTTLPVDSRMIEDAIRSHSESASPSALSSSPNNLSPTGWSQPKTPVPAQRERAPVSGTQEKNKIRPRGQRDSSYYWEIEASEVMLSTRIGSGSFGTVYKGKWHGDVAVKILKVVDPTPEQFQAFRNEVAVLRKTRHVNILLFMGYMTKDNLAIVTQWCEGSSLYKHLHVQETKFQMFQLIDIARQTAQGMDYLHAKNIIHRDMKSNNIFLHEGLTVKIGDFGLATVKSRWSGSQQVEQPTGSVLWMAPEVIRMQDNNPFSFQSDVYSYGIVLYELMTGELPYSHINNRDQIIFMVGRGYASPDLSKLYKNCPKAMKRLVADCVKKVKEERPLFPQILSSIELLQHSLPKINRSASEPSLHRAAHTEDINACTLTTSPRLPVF

As for `COc1cc2ncnc(Sc3cccc(NC(=O)Nc4cc(C(C)(C)C(F)(F)F)nn4-c4ccccc4)c3)c2cc1OC` [Ex 307, 1-(3-(6,7-dimethoxyquinazolin-4-ylthio)phenyl)-3-(1-phenyl-3-(1,1,1-trifluoro-2-methylpropan-2-yl)-1H-pyrazol-5-yl)urea], the Kd (in general, a measure of binding affinity in units of concentration) at RAF kinases [1] was 250 to 500 nM; at RAF kinases [3], over 1000 nM; on RAF kinases [4], over 1000 nM. Moreover, in assay [2], the S35 result is “D (D > 0.40)”. The IC50 (as a rule, the concentration at which inhibition is half-maximal) in assay [5] was under 250 nM.
As to `COc1cc2ncnc(Oc3cccc(NC(=O)Nc4cc(C(C)(C)C)nn4-c4ccccc4Cl)c3)c2cc1OC` [Ex 340, 1-(3-tert-butyl-1-(2-chlorophenyl)-1H-pyrazol-5-yl)-3-(3-(6,7-dimethoxyquinazolin-4-yloxy)phenyl)urea], the Kd at RAF kinases [1] is 250 to 500 nM; at RAF kinases [3] it was over 1000 nM; on RAF kinases [4], over 1000 nM. Moreover, in assay [2], the S35 entry is recorded as “D (D > 0.40)”. In addition, the IC50 in assay [5] is under 250 nM.
On to `COc1cc2ncnc(Sc3cccc(NC(=O)Nc4cc(C(C)(C)C)nn4-c4ccccc4Cl)c3)c2cc1OC` [Ex 341, 1-(3-tert-butyl-1-(2-chlorophenyl)-1H-pyrazol-5-yl)-3-(3-(6,7-dimethoxyquinazolin-4-ylthio)phenyl)urea], for which the results for the Kd on RAF kinases [1], on RAF kinases [3] and at RAF kinases [4] were 250 to 500 nM, over 1000 nM and over 1000 nM, respectively. In assay [2], the S35 entry was “C (0.20 < C ≦ 0.40)”. In assay [5], the 50% inhibitory concentration (IC50) is under 250 nM.
On to `COc1cc2ncnc(Oc3cccc(NC(=O)Nc4cc(C(C)(C)C)nn4-c4ccccc4C)c3)c2cc1OC` [Ex 342, 1-(3-tert-butyl-1-o-tolyl-1H-pyrazol-5-yl)-3-(3-(6,7-dimethoxyquinazolin-4-yloxy)phenyl)urea], for which the figures for the Kd at RAF kinases [1], on RAF kinases [3] and at RAF kinases [4] were 250 to 500 nM, over 1000 nM and over 1000 nM, respectively. The S35 entry in assay [2] is “D (D > 0.40)”. In addition, the IC50 in assay [5] was under 250 nM.
In the case of `COc1cc2ncnc(Sc3cccc(NC(=O)Nc4cc(C(C)(C)C)nn4-c4ccccc4C)c3)c2cc1OC` [Ex 343, 1-(3-tert-butyl-1-o-tolyl-1H-pyrazol-5-yl)-3-(3-(6,7-dimethoxyquinazolin-4-ylthio)phenyl)urea], the Kd on RAF kinases [1] was 250 to 500 nM; on RAF kinases [3], over 1000 nM; on RAF kinases [4], over 1000 nM. In assay [2], the S35 result is recorded as “C (0.20 < C ≦ 0.40)”. Also, the IC50 in assay [5] is under 250 nM.
For the molecule `COc1cc2ncnc(Oc3cccc(NC(=O)Nc4cc(C(C)(C)C)nn4-c4ccccn4)c3)c2cc1OC` [Ex 344, 1-(3-tert-Butyl-1-(pyridin-2-yl)-1H-pyrazol-5-yl)-3-(3-(6,7-dimethoxyquinazolin-4-yloxy)phenyl)urea], the Kd is 500 to 1000 nM at RAF kinases [1], over 1000 nM on RAF kinases [3] and over 1000 nM on RAF kinases [4]. The S35 entry in assay [2] is “C (0.20 < C ≦ 0.40)”. In assay [5], the IC50 was 500 to 1000 nM.
Turning to `COc1cc2ncnc(Sc3cccc(NC(=O)Nc4cc(C5(C(F)(F)F)CC5)nn4-c4ccc(C)cc4)c3)c2cc1OC` [Ex 347, 1-(3-(6,7-dimethoxyquinazolin-4-ylthio)phenyl)-3-(1-p-tolyl-3-(1-(trifluoromethyl)cyclopropyl)-1H-pyrazol-5-yl)urea], the Kd on RAF kinases [1] was 250 to 500 nM; on RAF kinases [3], over 1000 nM; on RAF kinases [4], over 1000 nM. Moreover, the S35 entry in assay [2] is recorded as “D (D > 0.40)”. Besides, in assay [5], the IC50 was under 250 nM.
Regarding `COc1cccc(-c2cc(=O)c3ccccc3o2)c1N` [PD98059], the “eosinophilic proinflammatory cytokine release” value in the assay on Erk1/2 was “inhibits eosinophilic proinflammatory cytokine release”.
For the molecule `CNC(=O)c1cc(Oc2ccc(NC(=O)Nc3ccc(Cl)c(C(F)(F)F)c3)cc2)ccn1` [Sorafenib], the “tumor growth or metastases in animals” value in assay [6] was “decrease in tumor growth or metastases”.
